Laboratory results reported in article PMC7436049, “Combining In Silico and In Vitro Studies to Evaluate the Acetylcholinesterase Inhibitory Profile of Different Accessions and the Biomarker Triterpenes of Centella asiatica” (Molecules, 2020).
Read-outs that look alike come from different tables or passages of the source.

Target: T1, acetylcholinesterase from electrophorus electricus (Electrophorus electricus, UniProt O42275)
T1 construct: purchased Sigma–Aldrich (St. Louis, MO, USA)
Assay: biochemical
Conditions: read-out: AChE inhibitory activity, IC50 Values (converted)
Protocol: All solvents were HPLC grade, purchased from Merck (Darmstadt, Germany). […] Sodium monobasic […] were purchased from Merck (Darmstadt, Germany), and acetylcholinesterase from electrophorus electricus, 5,5′-Dithiobis (2-nitrobenzoic acid), and […] were obtained from Sigma–Aldrich (St. Louis, MO, USA).
The AChE inhibitory activity was evaluated using Ellman’s method, as reported previously. Each sample (20 µL of 5 mg/mL in DMSO) was dispensed in triplicate into a 96-well microplate and mixed with 190 µL of DTNB, 20 µL of substrate (ATCI). The control wells contained 2% of DMSO instead of the extract. The enzymatic activity was measured at 412 nm every 30 s intervals for 3 min. The buffer solution was used as negative control.
The percentage inhibition (%I) of each sample and the positive control (physostigmine) was calculated using the formula:%I: [(Ac − As)/(Ac)] × 100(1) where (%I): Percentage inhibition • Ac: Absorbance of negative control • As: Absorbance of sample
The experiments were expressed as the mean ± standard error of the mean (SEM) in triplicates.

[1] = Ellman's method, 412 nm, mean ± SEM, triplicates

T1 sequence (O42275 24-633): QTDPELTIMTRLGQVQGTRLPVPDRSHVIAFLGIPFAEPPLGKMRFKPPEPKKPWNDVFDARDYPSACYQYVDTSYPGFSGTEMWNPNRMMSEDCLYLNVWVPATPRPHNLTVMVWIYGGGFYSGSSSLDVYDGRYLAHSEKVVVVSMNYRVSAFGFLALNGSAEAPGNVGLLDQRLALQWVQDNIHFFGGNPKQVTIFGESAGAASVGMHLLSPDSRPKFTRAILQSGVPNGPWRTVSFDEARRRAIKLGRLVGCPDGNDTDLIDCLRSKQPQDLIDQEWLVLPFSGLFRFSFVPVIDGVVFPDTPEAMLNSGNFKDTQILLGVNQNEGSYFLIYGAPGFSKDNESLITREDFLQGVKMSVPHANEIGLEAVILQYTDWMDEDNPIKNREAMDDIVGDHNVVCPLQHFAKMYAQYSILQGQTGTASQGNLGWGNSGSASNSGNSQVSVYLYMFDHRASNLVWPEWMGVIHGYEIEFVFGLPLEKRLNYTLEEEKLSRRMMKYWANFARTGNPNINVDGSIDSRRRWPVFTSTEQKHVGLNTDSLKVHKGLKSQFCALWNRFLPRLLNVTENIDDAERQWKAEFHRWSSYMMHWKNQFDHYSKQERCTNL

SMILES	IC50 [1]	IC50
C[C@H]1[C@H](C)CC[C@]2(C(=O)O)CC[C@]3(C)C(=CC[C@@H]4[C@@]5(C)C[C@@H](O)[C@H](O)[C@@](C)(CO)[C@@H]5CC[C@]43C)[C@H]12 [Asiatic acid, asiatic acid]	30.8 µM	
C[C@H]1[C@H](C)CC[C@]2(C(=O)O)CC[C@]3(C)C(=CC[C@@H]4[C@@]5(C)C[C@@H](O)[C@H](O)[C@@](C)(CO)[C@@H]5[C@H](O)C[C@]43C)[C@H]12 [Madecassic acid, madecassic acid]	35.3 µM	
C[C@H]1[C@H](C)CC[C@]2(C(=O)O[C@@H]3O[C@H](CO[C@@H]4O[C@H](CO)[C@@H](O[C@@H]5O[C@@H](C)[C@H](O)[C@@H](O)[C@H]5O)[C@H](O)[C@H]4O)[C@@H](O)[C@H](O)[C@H]3O)CC[C@]3(C)C(=CC[C@@H]4[C@@]5(C)C[C@@H](O)[C@H](O)[C@@](C)(CO)[C@@H]5[C@H](O)C[C@]43C)[C@H]12 [Madecassoside, madecassoside]		38.1 µM
